What was measured:
Format in all cases: cell-based
OCI-AML3 cells [1] = test: Annexin V staining and live cell counting by flow cytometry in OCI-AML3 cells with lentiviral p73 knockdown
Protocol: Apoptosis induction was measured by annexin V staining (Annexin V positive cells (%)), and live cell numbers were measured by counting beads by flow cytometry.

TAp73 and ΔNp73 = TAp73 and ΔNp73 levels in AML cells after (R)-2HG treatment
From the text: Results The inventors determined copy numbers of ΔNp73 and TAp73 mRNA levels in 78 AML samples including 31 de novo AML using droplet digital PCR (ddPCR), which allows to determine the absolute quantity of the isoforms expressed, and investigated their clinical and biological relevance. ΔNp73 and TAp73 expression was detected in 93.6% and 98.7% of AML samples at variable levels (mean±SEM, 10.6±5.0, and 106.6±33.7 copies/μL, for ΔNp73 and TAp73, respectively). ΔNp73 and TAp73 mRNA levels were highly correlated (R^2=0.72, P<0.0001). […] However, AML with IDH1/2 mutations had 8.5-fold lower ΔNp73 expression than those with wild-type IDH1/2 (1.8±0.8 vs 15.4±7.7 copies/μL, P=0.0069), with a similar trend for TAp73 (49.0±20.3 vs 138.6±51.4 copies/μL, P=0.056). […] To further explore the regulation of TP73 isoforms, the inventors used MDM2 inhibitor Nutlin-3a to induce p53 which is a transcriptional inducer of ΔNp73. […] AML cells with IDH1/2 mutations are more dependent on Bcl-2 than those without (Chan, Nat Med 2015).

AML cells = test: Susceptibility of AML cells to Bcl-2 inhibitor ABT-199 (VEN) after (R)-2HG treatment; conditions: AML cells treated with 2HG
MOLM-13 cells [2] = test: Sensitivity of MOLM-13 parent and ABT-199 resistant (ABTR) cells to ABT-199, annexin V and live cell numbers; conditions: MOLM-13 ABTR cells versus parent
Protocol: (§1) In FIG. 2A, there are immunoblot images of two AML cell lines (MOLM-13 and MV4;11 cells) that acquired ABT-199 resistance (ABTR) through long-term exposure to continuous treatment of ABT-199. Parental control cells (Parent) are used for comparison. Histone H3 (H3) serves as a loading control, and relative protein levels were measured as ratios of target proteins and H3 through densitometry. […] In FIG. 2B, there is shown sensitivity of MOLM-13 and MV4;11 parent and ABTR cells to ABT-199. Apoptosis induction was measured by annexin V staining (Annexin V positive cells (%)), and live cell numbers were measured by counting beads by flow cytometry.

MV4;11 cells = test: Sensitivity of MV4;11 parent and ABT-199 resistant (ABTR) cells to ABT-199, annexin V and live cell numbers; conditions: MV4;11 ABTR cells versus parent
Protocol: as §1

MOLM-13 cells [3] = test: Sensitivity to ABT-199 in MOLM-13 cells with overexpression of p73 isoforms/variants, annexin V and live cell numbers
Protocol: In FIG. 3A, there are immunoblot images of different p73 N-terminal isoforms (TA and ΔN) and C-terminal variants (α, β and γ) protein levels. MOLM13 cells with overexpression of those p73 isoforms/variants was generated by lentiviral transfection. β-actin serves as a loading control. Successful overexpression of p73 isoforms/variants in MOLM-13 cells, which are originally sensitive to ABT-199. […] Apoptosis induction was measured by annexin V staining (Annexin V positive cells (%)), and live cell numbers were measured by counting beads by flow cytometry. […] A p73 isoform ΔNp73γ overexpression induced resistance to ABT-199, indicating a novel resistance mechanism by p73 isoforms/variants to ABT-199 in AML cells.

OCI-AML3 cells [4] = test: Apoptosis induction by Nutlin-3a (specific annexin V induction) in OCI-AML3 cells with vector control or p73 knockdown; conditions: 5 μM Nutlin-3a
From the text: (§2) To further explore the regulation of TP73 isoforms, the inventors used MDM2 inhibitor Nutlin-3a to induce p53 which is a transcriptional inducer of ΔNp73.

p73 = p73 protein levels after MDM2 inhibition in AML cells
From the text: as §2

Nc1ncn([C@@H]2O[C@H](CO)[C@@H](O)[C@H]2O)c(=O)n1 [5′-azacitidine]
apoptosis induction (Annexin V positive cells), p73 knockdown versus control (OCI-AML3 cells [1]; p73 knockdown): enhances apoptosis induction

O=C(O)CC[C@@H](O)C(=O)O [(R)-2HG]
TAp73 and ΔNp73 levels (TAp73 and ΔNp73): reduced both TAp73 and ΔNp73
susceptibility to the Bcl-2 inhibitor ABT-199 (VEN) (AML cells): increased susceptibility

CC1(C)CCC(CN2CCN(c3ccc(C(=O)NS(=O)(=O)c4ccc(NCC5CCOCC5)c([N+](=O)[O-])c4)c(Oc4cnc5[nH]ccc5c4)c3)CC2)=C(c2ccc(Cl)cc2)C1 [ABT-199]
sensitivity to ABT-199 (apoptosis, live cell numbers) (MOLM-13 cells [2]): clearly show resistance
sensitivity to ABT-199 (apoptosis, live cell numbers) (MV4;11 cells): clearly show resistance
sensitivity to VEN (OCI-AML3 cells [1]; lentiviral knockdown of p73): enhanced sensitivity
apoptosis induction (Annexin V positive cells), p73 knockdown versus control (OCI-AML3 cells [1]; p73 knockdown): greater
live cell numbers, p73 knockdown versus control (OCI-AML3 cells [1]; p73 knockdown): superior reduction of live cell numbers
sensitivity to ABT-199 (apoptosis, live cell numbers) (MOLM-13 cells [3]; MOLM-13 cells with TAp73α overexpression): still sensitive
sensitivity to ABT-199 (apoptosis, live cell numbers) (MOLM-13 cells [3]; MOLM-13 cells with TAp73α overexpression, listed as VEN): minimally increased VEN-induced apoptosis
sensitivity to ABT-199 (apoptosis, live cell numbers) (MOLM-13 cells [3]; MOLM-13 cells with vector control): still sensitive
sensitivity to ABT-199 (apoptosis, live cell numbers) (MOLM-13 cells [3]; MOLM-13 cells with ΔNp73β overexpression): still sensitive
sensitivity to ABT-199 (apoptosis, live cell numbers) (MOLM-13 cells [3]; MOLM-13 cells with ΔNp73γ overexpression): resistant
sensitivity to ABT-199 (apoptosis, live cell numbers) (MOLM-13 cells [3]; MOLM-13 cells with ΔNp73γ overexpression, listed as VEN): striking resistance

COc1ccc(C2=N[C@@H](c3ccc(Cl)cc3)[C@@H](c3ccc(Cl)cc3)N2C(=O)N2CCNC(=O)C2)c(OC(C)C)c1 [Nutlin-3a]
specific annexin V induction (OCI-AML3 cells [4]; OCI-AML3 cells with Shp73 (knockdown of TAp73 and ΔNp73)): 61.3±5.2%
specific annexin V induction (OCI-AML3 cells [4]; OCI-AML3 cells with vector control): 21.9±1.3%
p73 protein levels (p73): increased p73 protein levels

CCCCCCCCOC(=O)[C@H](O)CCC(=O)O [octyl-(R)-2HG]
TAp73 and ΔNp73 levels (TAp73 and ΔNp73): reduced both TAp73 and ΔNp73
susceptibility to the Bcl-2 inhibitor ABT-199 (VEN) (AML cells): increased susceptibility

From patent US20230027472A1, “TARGETING P73 FOR CANCERS RESISTANT TO BH3 MIMETICS” (BOARD OF REGENTS, THE UNIVERSITY OF TEXAS SYSTEM, priority 2019, published 2023)
